Consider one molecule from US7279498B2, “Substituted aryl amides as IP antagonists” (Roche Palo Alto LLC, priority 2003, dated 2007).

One data set addresses T1, hERG potassium channel (Homo sapiens, UniProt Q12809).
T1 construct: expressed in transfected cells; host or cells: CHO-K1 cells
Nature of the data set: hERG Potassium Channel Pharmacology Screening (whole-cell patch-clamp, CHO-K1 cells). The data set is classed as cell-based. Particulars: CHO-K1 cells expressing recombinant human hERG channel, read-out: hERG outward current inhibition percentage. As for the experimental part: The effects of the subject compounds on recombinant hERG potassium channels expressed in CHO-K1 cells was determined according to the procedure reported by Hamill et al., 1981, Pflügers Arch., 391, 85–100
The following solutions were used to isolate potassium currents in cultured cell lines: extracellular (in mM), NaCl (150), KCl (4), HEPES (10), CaCl2 (1.2), MgCl2 (1), adjusted to pH 7.4 with NaOH; intracellular (in mM), KCl (140), HEPES (10), EGTA (5), MgCl2 (6), ATP-Na2 (5), adjusted to pH 7.2 with KOH.
Whole-cell patch-clamp methods were used to record potassium currents from CHO.K1 cells expressing the human hERG channel. Each cell was held at a negative holding potential of −80 mV. […] Peak tail current amplitudes at the different test potentials were measured to obtain the current-voltage relationship.
A second protocol was used to investigate the effects of compounds on hERG currents. […] Drugs were applied once a stable baseline has been recorded for 5 min. […]
Voltage-dependent potassium currents were recorded from single cells at room temperature (20–22° C.) using the whole-cell configuration of the patch-clamp technique. […]
The peak amplitude of outward currents are measured using Clampfit software to find peak amplitude. […]
Statistics were calculated using Microcal Origin and Prism software, and results were reported as mean+/−standard error of the mean. […]
A general note: hERG is a cardiac potassium channel; its block is linked to QT prolongation.

For data set [1], the target named is T2, rat prostanoid IP receptor (Rattus norvegicus, UniProt P43253).
T2 construct: expressed in transfected cells; host or cells: Chinese Hamster Ovary cells (kept under geneticin)
Nature of the data set: IP receptor activity assay: cyclic AMP accumulation (cAMP Flashplate) in CHO cells. The data set is classed as cell-based. The note with it: CHO cells expressing the rat prostanoid IP receptor. As for the experimental part:
The IP receptor agonist potency of compounds of this invention in vitro was determined by measuring the agonist-mediated cyclic AMP accumulation in an assay utilizing Chinese Hamster Ovary cells expressing the rat prostanoid IP receptor. Cyclic AMP levels were determined using a commercially available Adenylate Cyclase cAMP Flashplate Assay.
Chinese Hamster Ovary cells expressing the rat prostanoid IP receptor were maintained in Ham's Mixture with 10% fetal bovine serum, […] geneticin in 5% carbon dioxide ([…]). Cells were harvested at approximately 90% confluency using Dulbecco's Phosphate-Buffered saline containing 2 mM EDTA, and washed once at 1000×g and resuspended in Wash Buffer. A sample was aliquoted for protein determination. The cell suspension was centrifuged at 1000×g and adjusted to 110–140 E+3 cells/50 μl in the “Stimulation and Detection Buffer” from the assay kit.
The test compounds or vehicle were incubated with 50 μl cells (110–140 E+3 cells) for 5 minutes at room temperature. After the incubation, 100 μl lysis/tracer solution was added to the wells and the radioactivity counted on a Packard Topcount microplate scintillation counter after overnight incubation. The amount of radioactive cAMP bound to the antibody is inversely proportional to the concentration of added non-radioactive cAMP. […]

T1 sequence (Q12809 whole entry): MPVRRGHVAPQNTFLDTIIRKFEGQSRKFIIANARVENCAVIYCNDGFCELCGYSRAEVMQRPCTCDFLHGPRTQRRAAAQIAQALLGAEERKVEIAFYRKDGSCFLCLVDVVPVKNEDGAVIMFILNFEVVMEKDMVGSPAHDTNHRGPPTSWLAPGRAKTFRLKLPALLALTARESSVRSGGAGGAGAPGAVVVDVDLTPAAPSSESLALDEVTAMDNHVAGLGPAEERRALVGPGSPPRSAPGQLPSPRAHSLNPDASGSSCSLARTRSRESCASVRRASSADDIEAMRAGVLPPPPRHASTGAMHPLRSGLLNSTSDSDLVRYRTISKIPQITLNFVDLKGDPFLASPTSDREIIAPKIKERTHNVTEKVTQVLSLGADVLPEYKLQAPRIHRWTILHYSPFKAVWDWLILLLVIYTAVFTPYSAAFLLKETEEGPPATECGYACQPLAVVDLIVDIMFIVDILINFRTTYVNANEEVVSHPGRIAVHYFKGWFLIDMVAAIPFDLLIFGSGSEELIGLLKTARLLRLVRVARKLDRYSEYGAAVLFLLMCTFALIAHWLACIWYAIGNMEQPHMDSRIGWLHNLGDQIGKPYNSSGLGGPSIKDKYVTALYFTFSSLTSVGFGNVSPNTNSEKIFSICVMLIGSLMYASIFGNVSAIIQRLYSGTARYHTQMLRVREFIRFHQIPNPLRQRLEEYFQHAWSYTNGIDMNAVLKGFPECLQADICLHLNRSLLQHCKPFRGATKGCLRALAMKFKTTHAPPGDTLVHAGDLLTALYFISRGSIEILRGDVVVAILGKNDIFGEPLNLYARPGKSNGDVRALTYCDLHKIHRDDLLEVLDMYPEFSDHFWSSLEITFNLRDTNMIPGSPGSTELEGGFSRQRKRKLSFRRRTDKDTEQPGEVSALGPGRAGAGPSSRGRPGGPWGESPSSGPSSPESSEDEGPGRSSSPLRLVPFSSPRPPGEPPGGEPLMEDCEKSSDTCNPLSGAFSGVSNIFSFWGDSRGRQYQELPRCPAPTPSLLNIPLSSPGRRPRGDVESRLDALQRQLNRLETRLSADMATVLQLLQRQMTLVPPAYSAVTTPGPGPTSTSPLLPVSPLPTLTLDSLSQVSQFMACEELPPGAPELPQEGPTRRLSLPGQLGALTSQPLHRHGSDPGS
T2 sequence (P43253 whole entry): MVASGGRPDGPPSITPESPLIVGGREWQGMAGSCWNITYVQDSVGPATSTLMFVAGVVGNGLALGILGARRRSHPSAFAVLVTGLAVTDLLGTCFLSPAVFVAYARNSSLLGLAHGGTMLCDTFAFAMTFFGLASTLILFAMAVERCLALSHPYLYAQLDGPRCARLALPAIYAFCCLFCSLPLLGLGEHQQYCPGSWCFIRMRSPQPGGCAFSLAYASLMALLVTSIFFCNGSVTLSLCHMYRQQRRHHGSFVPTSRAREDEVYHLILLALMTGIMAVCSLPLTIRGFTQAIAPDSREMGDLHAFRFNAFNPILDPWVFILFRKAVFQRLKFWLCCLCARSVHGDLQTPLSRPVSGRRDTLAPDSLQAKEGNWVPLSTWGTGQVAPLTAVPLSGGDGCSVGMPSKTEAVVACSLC

One may read the inhibition as the percentage by which the read-out fell short of the control. A word on the Ki: it is a dissociation constant, usually derived from enzyme kinetics or from competition with a known ligand. Read a low Ki as a stronger hold on the target. Regarding `COc1ccc(C(=O)NCc2ccc(NC3=NCCN3)cc2)cc1` [compound 96, N-[4-(4,5-Dihydro-1H-imidazol-2-yl-amino)-benzyl]-4-methoxy-benzamide], the inhibition at 1 µM at hERG potassium channel (pH 7.4, at 1 uM) turned out to be 4.3 ± 4.4%. Besides, the inhibition at 10 µM on hERG potassium channel (pH 7.4, at 10 uM) was 10.8 ± 7.2%. The molecule further had an inhibition constant Ki in data set [1] of roughly 7.59 nM.
